Experimental data taken from PubChem BioAssay AID2060496 (Molecular Pharmacology Branch, DTP, NCI, 2025).
Blank lines part the entries; values can stand above or below the compound they belong to.

Test system: 276233-004-R-J1-PDC complex spheroid viability
Experiment: Anticancer human tumor 276233-004-R-J1-PDC patient-derived colon adenocarcinoma cell line growth inhibition [GQUAD]
Details: for IC50: curve of first compound; for viability, T/C: stronger effect = lower value
From the text: DNA G-quadruplex Stabilizer Agents in Combinations in Complex Spheroids
A high-throughput screen of multi-cell type tumor spheroids was designed to identify active combinations of DNA G-quadruplex stabilizer agents and targeted small molecules. Complex spheroids include a stromal component modeled by human endothelial cells (HUVEC) and fibroblasts modeled by human mesenchymal stem cells (MSCs). The concentration ranges selected for each drug and investigational agent were based upon clinically achievable concentrations if the clinical Cmax of the agent was known.
Compounds. The drugs and investigational agents: pidnarulex (CX-5461; NSC782164), APTO-253 (NSC789042), BRACO-19 (NSC847499), peposertib (NSC802822), ceralasertib (NSC780249), elimusertib (NSC800525), camonsertib (NSC841442), AZD-1390 (NSC803789), olaparib (NSC753686), talazoparib (NSC767125), ART-558 (NSC835418), sotorasib (NSC818433), MRTX-1133 (NSC836407), SN-38 (NSC673596), topotecan (NSC609699), etoposide (NSC141540), doxorubicin (NSC123127), gemcitabine (NSC613327), 5-fluorouracil (NSC19893), paclitaxel (NSC125973), vemurafenib (NSC761431), panobinostat (NSC761190), R-306465 (JNJ-16241199; NSC773264), adavosertib (NSC754352), TP-3654 (NSC805149), carboplatin (NSC241240), KSQ-4279 (NSC840948), and staurosporine (NSC755774) were obtained from the National Cancer Institute (NCI) Developmental Therapeutics Program Chemical Repository (34). The FDA-approved anticancer drug set is available from the NCI Developmental Therapeutics Program. […] The stock solutions were prepared in dimethyl sulfoxide (DMSO, Sigma-Aldrich, St. Louis, MO, cat. D2650) at 800-fold the tested concentration and stored at -70 degrees C prior to their use. All drugs and investigational agents were tested over a range starting from a high concentration at or near the clinical Cmax and decreasing in half-log increments. If the clinical Cmax for an agent had not been determined, the highest concentration tested was 10 microM.
2.3 Cell Culture. All cells were maintained in an incubator at 37 degrees C and 5% CO2 with 95% humidity. The PDC lines were cultured according to standard operating procedures established by the NCI PDMR. All PDCs were thawed and cultured in Matrigel-coated flasks prepared with a working solution of 1X Ham's F-12 nutrient mix, without supplementation (Invitrogen, cat. 11765054), 100 U/mL penicillin-streptomycin (Invitrogen, cat. 15140122), and 2.5% Matrigel (Corning Inc., cat. 354248) for the first three passages. The 857933-349-R-J2-PDC line was cultured in 6C/Colon 1B media, which includes advanced DMEM/F-12 (Thermo Fisher Scientific, cat. 12634028), 10 mM HEPES (Thermo Fisher Scientific, cat. 15630080), 1X GlutaMAX supplement (Thermo Fisher Scientific, cat. 35050061), 0.1 mg/mL primocin (InvivoGen, cat. ant-pm-2), 10% defined fetal bovine serum, heat inactivated (HyClone Laboratories Inc., cat. SH30070.03HI), 50% L-WRN conditioned media (ATCC, cat. CRL-3276), 1.25 mM N-Acetyl-L-cysteine (Sigma-Aldrich, cat. A9165), 10 mM nicotinamide (Sigma-Aldrich, cat. N0636), 1X B-27 supplement (Thermo Fisher Scientific, cat. 17504044), 1X N-2 supplement (Thermo Fisher Scientific, cat. 17502048), 10 microM Y-27632 dihydrochloride (Tocris Bioscience, cat. 1254), and 50 ng/mL human EGF recombinant protein (Thermo Fisher Scientific, cat. PHG0311). The 485176-168-R4-J1-PDC line was cultured in Panc media, which includes all 6C/Colon 1B media components plus 100 ng/mL human FGF-10 (Thermo Fisher Scientific, cat. 100-26), 500 nM SB-431542 (Selleckchem, cat. S1067), and gastrin (Tocris, cat. 3006).
[…]

[1] = second compound 0.0316 µM, first compound 0.0316 µM
[2] = second compound 0.0316 µM, first compound 0.1 µM
[3] = second compound 0.0316 µM, first compound 0.316 µM
[4] = second compound 0.0316 µM, first compound 1 µM
[5] = second compound 0.0316 µM, first compound 3.16 µM
[6] = second compound 0.0316 µM, first compound 10 µM
[7] = second compound 0.1 µM, first compound 0.0316 µM
[8] = second compound 0.1 µM, first compound 0.1 µM
[9] = second compound 0.1 µM, first compound 0.316 µM
[10] = second compound 0.1 µM, first compound 1 µM
[11] = second compound 0.1 µM, first compound 3.16 µM
[12] = second compound 0.1 µM, first compound 10 µM
[13] = second compound 0.316 µM, first compound 0.0316 µM
[14] = second compound 0.316 µM, first compound 0.1 µM
[15] = second compound 0.316 µM, first compound 0.316 µM
[16] = second compound 0.316 µM, first compound 1 µM
[17] = second compound 0.316 µM, first compound 3.16 µM
[18] = second compound 0.316 µM, first compound 10 µM
[19] = second compound 1 µM, first compound 0.0316 µM
[20] = second compound 1 µM, first compound 0.1 µM
[21] = second compound 1 µM, first compound 0.316 µM
[22] = second compound 1 µM, first compound 1 µM
[23] = second compound 1 µM, first compound 3.16 µM
[24] = second compound 1 µM, first compound 10 µM
[25] = second compound 3.16 µM, first compound 0.0316 µM
[26] = second compound 3.16 µM, first compound 0.1 µM
[27] = second compound 3.16 µM, first compound 0.316 µM
[28] = second compound 3.16 µM, first compound 1 µM
[29] = second compound 3.16 µM, first compound 3.16 µM
[30] = second compound 3.16 µM, first compound 10 µM
[31] = second compound 10 µM, first compound 0.0316 µM
[32] = second compound 10 µM, first compound 0.1 µM
[33] = second compound 10 µM, first compound 0.316 µM
[34] = second compound 10 µM, first compound 1 µM
[35] = second compound 10 µM, first compound 3.16 µM
[36] = second compound 10 µM, first compound 10 µM
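Also: spheroids exposed to drugs for seven days.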
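For viability, T/C in this document: 100% = DMSO vehicle control viability.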

SMILES: O=c1[nH]cc(F)c(=O)[nH]1 + Cc1[nH]c2ccc(F)cc2c1-c1nc2c3cccnc3c3ncccc3c2[nH]1
IC50 (second compound 0.0316 µM): > 10 µM
IC50 (second compound 0.1 µM): > 10 µM
IC50 (second compound 0.316 µM): > 10 µM
IC50 (second compound 1 µM): > 10 µM
IC50 (second compound 3.16 µM): > 10 µM
IC50 (second compound 10 µM): < 0.0316 µM
viability, T/C [1]: 71.4%
viability, T/C [2]: 85.6%
viability, T/C [3]: 92.9%
viability, T/C [4]: 76.8%
viability, T/C [5]: 77.5%
viability, T/C [6]: 100%
viability, T/C [7]: 79.3%
viability, T/C [8]: 97.2%
viability, T/C [9]: 88.9%
viability, T/C [10]: 82.7%
viability, T/C [11]: 83%
viability, T/C [12]: 80%
viability, T/C [13]: 75.7%
viability, T/C [14]: 91.2%
viability, T/C [15]: 80.4%
viability, T/C [16]: 94%
viability, T/C [17]: 74.5%
viability, T/C [18]: 85.3%
viability, T/C [19]: 57.3%
viability, T/C [20]: 63%
viability, T/C [21]: 73.1%
viability, T/C [22]: 65.6%
viability, T/C [23]: 70.8%
viability, T/C [24]: 73.3%
viability, T/C [25]: 54.6%
viability, T/C [26]: 49.9%
viability, T/C [27]: 48.5%
viability, T/C [28]: 48%
viability, T/C [29]: 53.8%
viability, T/C [30]: 51.9%
viability, T/C [31]: 41.2%
viability, T/C [32]: 46.7%
viability, T/C [33]: 43.2%
viability, T/C [34]: 44.5%
viability, T/C [35]: 45.3%
viability, T/C [36]: 42.9%

IC50 (second compound 0.0316 µM): > 10 µM
IC50 (second compound 0.1 µM): > 10 µM
IC50 (second compound 0.316 µM): 3.7 µM
IC50 (second compound 1 µM): 4.44 µM
IC50 (second compound 3.16 µM): 3.32 µM
IC50 (second compound 10 µM): 1.07 µM
SMILES: CC1COCCN1c1cc(-c2ccnn2C)c2ccnc(-c3ccn[nH]3)c2n1 (stereo unspecified) + Cc1cnc(CNC(=O)c2c(=O)c3ccc(N4CCCN(C)CC4)nc3n3c2sc2ccccc23)cn1
viability, T/C [1]: 99.5%
viability, T/C [2]: 57.5%
viability, T/C [3]: 78.7%
viability, T/C [4]: 56%
viability, T/C [5]: 63.2%
viability, T/C [6]: 42.5%
viability, T/C [7]: 79.6%
viability, T/C [8]: 86.5%
viability, T/C [9]: 63.2%
viability, T/C [10]: 67.2%
viability, T/C [11]: 56.6%
viability, T/C [12]: 55.1%
viability, T/C [13]: 73.1%
viability, T/C [14]: 67.1%
viability, T/C [15]: 65.9%
viability, T/C [16]: 58.9%
viability, T/C [17]: 51.3%
viability, T/C [18]: 41.8%
viability, T/C [19]: 68.9%
viability, T/C [20]: 64.7%
viability, T/C [21]: 67.4%
viability, T/C [22]: 58.4%
viability, T/C [23]: 52.3%
viability, T/C [24]: 43.5%
viability, T/C [25]: 63.1%
viability, T/C [26]: 57.3%
viability, T/C [27]: 62%
viability, T/C [28]: 55.8%
viability, T/C [29]: 49.7%
viability, T/C [30]: 41.1%
viability, T/C [31]: 53.4%
viability, T/C [32]: 50.6%
viability, T/C [33]: 51%
viability, T/C [34]: 47.2%
viability, T/C [35]: 49.2%
viability, T/C [36]: 38.5%

IC50 (second compound 0.0316 µM): > 10 µM
IC50 (second compound 0.1 µM): > 10 µM
IC50 (second compound 0.316 µM): > 10 µM
IC50 (second compound 1 µM): > 10 µM
IC50 (second compound 3.16 µM): > 10 µM
IC50 (second compound 10 µM): > 10 µM
SMILES: COc1cc(C2c3cc4c(cc3C(OC3OC5COC(C)OC5C(O)C3O)C3COC(=O)C23)OCO4)cc(OC)c1O (stereo unspecified) + Cc1cnc(CNC(=O)c2c(=O)c3ccc(N4CCCN(C)CC4)nc3n3c2sc2ccccc23)cn1
viability, T/C [1]: 83.2%
viability, T/C [2]: 91.7%
viability, T/C [3]: 87.8%
viability, T/C [4]: 72.9%
viability, T/C [5]: 98.6%
viability, T/C [6]: 82.1%
viability, T/C [7]: 97%
viability, T/C [8]: 92.2%
viability, T/C [9]: 76.2%
viability, T/C [10]: 95.3%
viability, T/C [11]: 75.5%
viability, T/C [12]: 88%
viability, T/C [13]: 85.4%
viability, T/C [14]: 77.3%
viability, T/C [15]: 86.9%
viability, T/C [16]: 94.8%
viability, T/C [17]: 73.1%
viability, T/C [18]: 81%
viability, T/C [19]: 84.8%
viability, T/C [20]: 80.2%
viability, T/C [21]: 85.8%
viability, T/C [22]: 83.2%
viability, T/C [23]: 96.4%
viability, T/C [24]: 78.2%
viability, T/C [25]: 78.7%
viability, T/C [26]: 78.2%
viability, T/C [27]: 76.7%
viability, T/C [28]: 76.9%
viability, T/C [29]: 87.7%
viability, T/C [30]: 75.2%
viability, T/C [31]: 65.1%
viability, T/C [32]: 72.2%
viability, T/C [33]: 70.9%
viability, T/C [34]: 71.5%
viability, T/C [35]: 78.7%
viability, T/C [36]: 82.9%
